These results are taken from ChEMBL document CHEMBL5260845, “Flavone-based arylamides as potential anticancers: Design, synthesis and in vitro cell-based/cell-free evaluations” (2020).

The source made the active and inactive calls. No cut-off for these calls is given here.

The subject of one assay is 786-0. The assay is described as follows: Antiproliferative activity against human 786-0 cells assessed as inhibition of cell growth at 10 uM by SRB assay relative to control. In kind it is functional. In general terms: Sulforhodamine B stains cellular protein and so reports cell mass.
Assay [1] deals with CCRF-CEM. The assay can be described thus: Antiproliferative activity against human CCRF-CEM cells assessed as cell growth inhibition at 10 uM by SRB assay relative to control. In kind it is functional.
The test system of assay [2] is HL-60. The assay can be described thus: Antiproliferative activity against human HL-60 cells assessed as cell growth inhibition at 10 uM by SRB assay relative to control. Format: functional.
The test system of assay [3] is K562. The assay can be described thus: Antiproliferative activity against human K562 cells assessed as cell growth inhibition at 10 uM by SRB assay relative to control. In kind it is functional.
Assay [4] concerns MOLT-4. The assay is described as follows: Antiproliferative activity against human MOLT-4 cells assessed as cell growth inhibition at 10 uM by SRB assay relative to control. Format: functional.
For assay [5], the system named is RPMI-8226. The assay can be described thus: Antiproliferative activity against human RPMI-8226 cells assessed as cell growth inhibition at 10 uM by SRB assay relative to control. Format: functional.
Assay [6] relates to SR. The assay can be described thus: Antiproliferative activity against human SR cells assessed as cell growth inhibition at 10 uM by SRB assay relative to control. Format: functional.
The test system of a further assay is EKVX. The assay is described as follows: Antiproliferative activity against human EKVX cells assessed as cell growth inhibition at 10 uM by SRB assay. In kind it is functional.
Another assay concerns HOP-92. The assay is described as follows: Antiproliferative activity against human HOP-92 cells assessed as cell growth inhibition at 10 uM by SRB assay. Format: functional, cell-based.
In a further assay the test system is NCI-H226. The assay is described as follows: Antiproliferative activity against human NCI-H226 cells assessed as cell growth inhibition at 10 uM by SRB assay. In kind it is functional.
The next assay has as its system NCI-H23. The assay can be described thus: Antiproliferative activity against human NCI-H23 cells assessed as cell growth inhibition at 10 uM by SRB assay. Format: functional.
The subject of the next assay is NCI-H522. The assay is described as follows: Antiproliferative activity against human NCI-H522 cells assessed as cell growth inhibition at 10 uM by SRB assay. In kind it is functional, cell-based.
A further assay relates to SF-295. The assay can be described thus: Antiproliferative activity against human SF-295 cells assessed as cell growth inhibition at 10 uM by SRB assay. Format: functional, cell-based.
A further assay has as its system UO-31. The assay is described as follows: Antiproliferative activity against human UO-31 cells assessed as inhibition of cell growth at 10 uM by SRB assay relative to control. In kind it is functional.
A further assay concerns Hs-578T. The assay is described as follows: Antiproliferative activity against human Hs-578T cells assessed as inhibition of cell growth at 10 uM by SRB assay. Format: functional, cell-based.
Assay [7] relates to CCRF-CEM. The assay is described as follows: Antiproliferative activity against human CCRF-CEM cells assessed as cell growth inhibition at 10 uM by SRB assay. In kind it is functional, cell-based.
In assay [8] the test system is HL-60. The assay is described as follows: Antiproliferative activity against human HL-60 cells assessed as cell growth inhibition at 10 uM by SRB assay. In kind it is functional, cell-based.
Assay [9] relates to K562. The assay can be described thus: Antiproliferative activity against human K562 cells assessed as cell growth inhibition at 10 uM by SRB assay. Format: functional, cell-based.
Assay [10] has as its system MOLT-4. The assay is described as follows: Antiproliferative activity against human MOLT-4 cells assessed as cell growth inhibition at 10 uM by SRB assay. Format: functional, cell-based.
The subject of assay [11] is RPMI-8226. The assay is described as follows: Antiproliferative activity against human RPMI-8226 cells assessed as cell growth inhibition at 10 uM by SRB assay. Format: functional, cell-based.
Assay [12] relates to SR. The assay can be described thus: Antiproliferative activity against human SR cells assessed as cell growth inhibition at 10 uM by SRB assay. Format: functional, cell-based.
The subject of a further assay is SK-MEL-2. The assay is described as follows: Antiproliferative activity against human SK-MEL-2 cells assessed as cell growth inhibition at 10 uM by SRB assay relative to control. In kind it is functional. The conditions noted are these: Homo sapiens, SK-MEL-2, dose 10 µM.
The test system of a further assay is UACC-257. The assay is described as follows: Antiproliferative activity against human UACC-257 cells assessed as cell growth inhibition at 10 uM by SRB assay relative to control. Format: functional.
The subject of another assay is UACC-62. The assay is described as follows: Antiproliferative activity against human UACC-62 cells assessed as cell growth inhibition at 10 uM by SRB assay relative to control. Format: functional.
Another assay has as its system A549. The assay can be described thus: Antiproliferative activity against human A549 cells assessed as cell growth inhibition at 10 uM by SRB assay. In kind it is functional, cell-based.
In another assay the test system is HOP-62. The assay can be described thus: Antiproliferative activity against human HOP-62 cells assessed as cell growth inhibition at 10 uM by SRB assay. In kind it is functional, cell-based.
The next assay has as its system NCI-H322M. The assay is described as follows: Antiproliferative activity against human NCI-H322M cells assessed as cell growth inhibition at 10 uM by SRB assay. Format: functional, cell-based.
The next assay concerns NCI-H460. The assay can be described thus: Antiproliferative activity against human NCI-H460 cells assessed as cell growth inhibition at 10 uM by SRB assay. Format: functional, cell-based.
In a further assay the test system is RXF 393. The assay is described as follows: Antiproliferative activity against human RXF 393 cells assessed as inhibition of cell growth at 10 uM by SRB assay relative to control. Format: functional.

What is called inhibition is the percentage by which the read-out fell short of the control. For the molecule `CNC(=O)c1cc(Oc2ccc(NC(=O)Nc3ccc(Cl)c(C(F)(F)F)c3)cc2)ccn1` [SORAFENIB], in the assay on 786-0, the inhibition at 10 µM is 84.5%.

With `COc1cc2oc(-c3ccc(NC(=O)c4ccc(C(F)(F)F)cc4)cc3)cc(=O)c2c(OC)c1OC`, the inhibition at 10 µM in the assay with CCRF-CEM [1], with HL-60 [2], in the assay with K562 [3], in the assay with MOLT-4 [4], in the assay with RPMI-8226 [5] and in the assay with SR [6] was at most 42.6% each time. The inhibition at 10 µM in the assay with EKVX, in the assay on NCI-H226 and in the assay with NCI-H23 was below 50% in each case. The inhibition result in the assay with HOP-92, in the assay with NCI-H522, in the assay on SF-295, in the assay on UO-31 and in the assay on Hs-578T was “Active” in each case.

`COc1cc2oc(-c3ccc(NC(=O)c4ccc(Cl)cc4)cc3)cc(=O)c2c(OC)c1OC`: the inhibition at 10 µM with CCRF-CEM [1], with HL-60 [2], in the assay with K562 [3], in the assay on MOLT-4 [4], in the assay with RPMI-8226 [5] and in the assay with SR [6] was at most 42.6% throughout. Also, the inhibition at 10 µM with EKVX, with NCI-H226 and with NCI-H23 was below 50% throughout. Besides, the inhibition entry in the assay with HOP-92, with NCI-H522, with SF-295, in the assay on UO-31 and with Hs-578T was “Active” in each case.

Consider `COc1cc2oc(-c3cccc(NC(=O)c4ccc(C)cc4)c3)cc(=O)c2c(OC)c1OC`, for which the inhibition result with CCRF-CEM [7], with HL-60 [8], in the assay with K562 [9], in the assay with MOLT-4 [10], with RPMI-8226 [11] and in the assay with SR [12] was “Active” throughout. Also, the inhibition result in the assay on HOP-92, in the assay on NCI-H522, with SF-295, in the assay on UO-31 and with Hs-578T was “Active” each time. The inhibition at 10 µM with EKVX is below 50%; with NCI-H226, below 50%; with NCI-H23 it was below 50%; in the assay with SK-MEL-2, at most 46%; in the assay with UACC-257, 56.1%; in the assay with UACC-62, 50.8%.

`COc1cc2oc(-c3ccc(NC(=O)c4ccc(F)cc4)cc3)cc(=O)c2c(OC)c1OC`: the inhibition at 10 µM in the assay on CCRF-CEM [1], in the assay on HL-60 [2], in the assay with K562 [3], in the assay with MOLT-4 [4], in the assay on RPMI-8226 [5] and in the assay with SR [6] was at most 42.6% each time. In addition, the inhibition at 10 µM in the assay on EKVX, with NCI-H226 and in the assay with NCI-H23 was below 50% each time. Further, the inhibition entry in the assay with HOP-92, in the assay with NCI-H522, with SF-295, in the assay with UO-31 and in the assay on Hs-578T was “Active” each time.

In the case of `COc1cc2oc(-c3cccc(C(=O)Nc4ccc(Br)cc4)c3)cc(=O)c2c(OC)c1OC`, the inhibition entry in the assay on CCRF-CEM [7], in the assay on HL-60 [8], with K562 [9], in the assay on MOLT-4 [10], in the assay with RPMI-8226 [11] and with SR [12] was “Active” in each case. Besides, the inhibition entry in the assay with A549, in the assay on EKVX, in the assay on HOP-62, in the assay on HOP-92, in the assay with NCI-H226 and in the assay on NCI-H23 was “Active” each time. For the same molecule, the inhibition entry in the assay on NCI-H322M, in the assay with NCI-H460, with NCI-H522 and in the assay with RXF 393 was “Active” in each case.
